Measurements published in US20210022342A1, “THE USE OF SAFENERS TO IMPROVE RESISTANCE OF RICE CROP TO HERBICIDES” (Adama Agan Ltd., priority 2018, published 2021).

Columns and labels:
Format in all cases: in vivo
[1] = tested on: mutant rice (ML0831265-01493, ATCC deposit PTA-12933, mutation G2096S); experiment: Tank mixes of safeners with propaquizafop or quizalofop: regrowth of mutant rice
Experimental: (§1) Seeds of a proprietary ACCase resistant rice variety, i.e. RTA1, was used. RTA1, ML0831265-01493 (ATCC deposit PTA-12933, mutation G2096S) variety rice seeds were supplied by RiceTec. RTA1 rice cultivar contains a single mutation in the ACCase gene that confer ACCase resistance. The mutation makes the enzyme insensitive to quizalofop.
(§2) Mutant rice seeds were planted in commercial greenhouse soil mix in 10×10×10 cm plastic pots. 250 mL of soil was put into each pot, then the seeds were placed on top of the soil and the seeds were covered with 100-150 mL of soil. Approximately 8-10 seeds were planted per pot. The pots were then watered with 100 mL of a mixture of Miracle Grow and Fertiplus (iron supplement). The pots were placed in the greenhouse (38° C./20° C. day/night, 14 h photoperiod with supplemental light). The average light intensity in the greenhouse was 150 μM/m^2/sec.
Plants were grown until 10 days after planting and then the pots were transferred to trays and the plants were grown under water. :Plants were treated when they reached the 3-5 leaf stage.
Safeners were tank mixed with the herbicide in the spray bottle.
(§3) Four days after treatment, the tops of the plants were cut off so that approximately 2.5 cm of plant from the top of the soil remain. The plants were allowed to regrow for 3 days at which time the amount of regrowth was weighed by measuring the amount of fresh weight of tissue that regrew. Comparing the weight of regrowth of shoots after cutting indicates the level of phytotoxicity the herbicide had on the mutant rice plant and the increased level of resistance of the mutant rice to the herbicide when the herbicide was applied in combination with the safener.
The safeners were applied in various w/w ratios with the ACCase inhibiting herbicides to the rice plant.

[2] = tested on: ACCase inhibitor resistant rice seeds (ML0831265-01493 (ATCC deposit PTA-12933, mutation G2096S)); experiment: Safener seed treatment with propaquizafop or quizalofop: regrowth of resistant rice
Experimental: as §1, §2
Plants were grown until 10 days after planting and then the pots were transferred to trays and the plants were grown under water. :Plants were treated when they reached the 3-5 leaf stage. […]
as §3
The safeners were also applied in various w/w ratios of the ACCase inhibiting herbicides to the rice seeds.

mutant rice = experiment: Regrowth of mutant rice under low and high light intensity
Source text: as §3

[3] = tested on: HPPD resistant rice variety; experiment: HPPD herbicides with isoxadifen, regrowth of HPPD resistant mutant rice
Experimental: The rice cultivar contains mutation(s) in the HPPD gene which makes the enzyme insensitive to mesotrione and/or tembotrione and/or isoxaflutole.
Seed of HPPD resistant rice variety is planted in a commercial greenhouse soil mix in 10×10×10 cm plastic pots. 250 mL of soil is put into each pot, then the seed is placed on top of the soil and the seed is covered with 100-150 mL of soil. Approximately 8-10 seeds are planted per pot. The pots are then watered with 100 mL of a mixture of Miracle Grow and Fertiplus (iron supplement). The pots are placed in the greenhouse (38° C./20° C. day/night, 14 h photoperiod with supplemental light). The average light intensity in the greenhouse was 150 μM/m^2/sec.
Plants are grown until 10 days after planting and then the pots are transferred to trays and plants are grown under water. Plants are treated when they reach the 3-5 leaf stage.
Generally, plants are treated with 50-250 g/ha of mesotrione or tembotrione or isoxaflutole through a moving nozzle spray system in a spray volume of 200 l/ha or 187 l/ha. Isoxadifen is tank mixed with the herbicide in the spray bottle. The weight ratio of the safener to the herbicide in the tank mix is from 1:1 to 1:5.
Four days after reatment, the tops of the plants are cut off to approximately 3 cm from the top of the soil. The plants are allowed to regrow for 7 days at which time the amount of regrowth is measured by cutting any growth above 3 cm above the top of soil and weighing the tissue that regrew.
Efficacy test is conducted to determine the effect of mesotrione on mutant rice in the presence of isoxadifen.
The weight the regrown shoot on mutant rice applied with mesotrione is compared with the weight of regrown shoot on mutant rice applied with mesotrione and isoxadifen at various rates.

weedy rice = experiment: Regrowth of weedy rice after quizalofop ethyl; settings: at the rates tested
Source text: The amount of plant regrowth observed for the ACCase resistant rice is compared to the amount of regrowth observed for the weedy rice. The weedy rice was killed by quizalofop ethyl at the rates tested, so there was no regrowth.

[4] = tested on: wild type rice (Non-Traited Rice); experiment: Quizalofop dose response with or without isoxadifen, regrowth, wild type rice; settings: calculated effect of safener alone, quizalofop 5.2 g/ha
[5] = tested on: herbicide resistant rice crop (G2096S substitution, ML0831265-01493); experiment: Quizalofop dose response with or without isoxadifen, regrowth, herbicide resistant rice
Experimental: Four days after treatment, the tops of the plants were cut off so that approximately 2.5 cm of plant from the top of the soil remain. The plants were allowed to regrow for 3 days at which time the amount of regrowth was weighed by measuring the amount of fresh weight of tissue that regrew.
The improvement in regrowth was calculated by subtracting the regrowth from a) wild type rice and wild type rice with isoxadifen; b) herbicide resistant rice; and c) herbicide resistant rice and isoxadifen.
Calculations were done for each application rate of quizalofop. The efficacy of safener alone and mutation alone on decreasing herbicide effect/increasing herbicide resistance were calculated. The relative fresh weight re-growth is the percentage of activity (for Colby).
The re-growth data was implemented in curve and the synergistic effect was calculated.
in which E represents the percentage of regrowth expected for the application of safener on mutant rice crop at the defined doses of herbicide. X is the percentage of regrowth for the application of safener on wildtype rice crop at the defined doses of herbicide. Y is the percentage of regrowth for mutant rice crop at the defined doses of herbicide without safener application. When the percentage of regrowth observed for the application of safener on mutant rice crop at the defined doses of herbicide is greater than expected as calculated using the Colby equation, there is a synergistic effect.

[6] = isoxaflutole with isoxadifen vs same mutant rice not treated with isoxadifen
[7] = mesotrione with isoxadifen vs same mutant rice not treated with isoxadifen
[8] = tembotrione with isoxadifen vs same mutant rice not treated with isoxadifen

O=C(O)C1=NOC(c2ccccc2)(c2ccccc2)C1 [Isoxadifen, isoxadifen]
Regrowth (fresh weight mg) ([1]; tank mix with propaquizafop 50 g/ha, safener 12.5 g/ha): 38 mg | Regrowth (fresh weight mg) ([1]; tank mix with propaquizafop 50 g/ha, safener 25 g/ha): 258 mg | Regrowth (fresh weight mg) ([1]; tank mix with propaquizafop 50 g/ha, safener 50 g/ha): 310 mg | Regrowth (fresh weight mg) ([1]; tank mix with propaquizafop 50 g/ha, safener 100 g/ha): 488 mg | Regrowth (fresh weight mg) ([1]; tank mix with quizalofop 40 g/ha, safener 12.5 g/ha): 87 mg | Regrowth (fresh weight mg) ([1]; tank mix with quizalofop 40 g/ha, safener 25 g/ha): 285 mg | Regrowth (fresh weight mg) ([1]; tank mix with quizalofop 40 g/ha, safener 50 g/ha): 335 mg | Regrowth (fresh weight mg) ([1]; tank mix with quizalofop 40 g/ha, safener 100 g/ha): 462 mg | Regrowth (fresh weight mg) ([2]; propaquizafop, safener seed treatment 0.5 g/kg of seed): 133 mg | Regrowth (fresh weight mg) ([2]; propaquizafop, safener seed treatment 1 g/kg of seed): 170 mg | Regrowth (fresh weight mg) ([2]; propaquizafop, safener seed treatment 2 g/kg of seed): 298 mg | Regrowth (fresh weight mg) ([2]; quizalofop, safener seed treatment 0.5 g/kg of seed): 165 mg | Regrowth (fresh weight mg) ([2]; quizalofop, safener seed treatment 1 g/kg of seed): 103 mg | Regrowth (fresh weight mg) ([2]; quizalofop, safener seed treatment 2 g/kg of seed): 80 mg | regrowth of the mutant rice (mutant rice; high light intensity, quizalofop with isoxadifen, any of the rates tested): regrowth was not significant affected | Regrowth (mg FW) (mutant rice; high light intensity, with safener, herbicide 0 g/ha): 540 mg FW | reduction in growth of the mutant rice (mutant rice; low light intensity, 40 g/ha quizalofop with 100 g/ha isoxadifen): less than 20% | Regrowth (mg FW) (mutant rice; low light intensity, with safener, herbicide 0 g/ha): 183 mg FW | level of resistance of the mutant rice to isoxaflutole [3, 6]: significantly increases the level of resistance | phytotoxicity of isoxaflutole on the mutant rice [3, 6]: significantly reduces the phytotoxicity | level of resistance of the mutant rice to mesotrione [3, 7]: significantly increases the level of resistance | phytotoxicity of mesotrione on the mutant rice [3, 7]: significantly reduces the phytotoxicity | level of resistance of the mutant rice to tembotrione [3, 8]: significantly increases the level of resistance | phytotoxicity of tembotrione on the mutant rice [3, 8]: significantly reduces the phytotoxicity

CCOC(=O)[C@@H](C)Oc1ccc(Oc2cnc3cc(Cl)ccc3n2)cc1 [Quizalofop, quizalofop P-ethyl]
Regrowth (fresh weight mg) ([1]; quizalofop 40 g/ha, no safener): 70 mg | Regrowth (fresh weight mg) ([2]; quizalofop, seeds without safener): 107 mg | Effect on weedy rice (regrowth) (weedy rice): killed | inhibition of growth of the mutant rice (mutant rice; high light intensity (800-1000 uM/m2/sec), 40 g/ha quizalofop, no safener): no inhibition of growth | reduction in growth of the mutant rice (mutant rice; high light intensity, 70 g/ha quizalofop, no safener): over 80% | Regrowth (mg FW) (mutant rice; high light intensity, no safener, herbicide 30 g/ha): 447 mg FW | Regrowth (mg FW) (mutant rice; high light intensity, no safener, herbicide 40 g/ha): 533 mg FW | Regrowth (mg FW) (mutant rice; high light intensity, no safener, herbicide 50 g/ha): 220 mg FW | Regrowth (mg FW) (mutant rice; high light intensity, no safener, herbicide 60 g/ha): 107 mg FW | Regrowth (mg FW) (mutant rice; high light intensity, no safener, herbicide 70 g/ha): 76.7 mg FW | Regrowth (mg FW) (mutant rice; high light intensity, with safener (isoxadifen), herbicide 30 g/ha): 630 mg FW | Regrowth (mg FW) (mutant rice; high light intensity, with safener (isoxadifen), herbicide 40 g/ha): 533 mg FW | Regrowth (mg FW) (mutant rice; high light intensity, with safener (isoxadifen), herbicide 50 g/ha): 603 mg FW | Regrowth (mg FW) (mutant rice; high light intensity, with safener (isoxadifen), herbicide 60 g/ha): 427 mg FW | Regrowth (mg FW) (mutant rice; high light intensity, with safener (isoxadifen), herbicide 70 g/ha): 540 mg FW | reduction in growth of the mutant rice (mutant rice; low light intensity (150 uM/m2/sec), 40 g/ha quizalofop, no safener): 80% | Regrowth (mg FW) (mutant rice; low light intensity, no safener, herbicide 30 g/ha): 30 mg FW | Regrowth (mg FW) (mutant rice; low light intensity, no safener, herbicide 40 g/ha): 0 mg FW | Regrowth (mg FW) (mutant rice; low light intensity, no safener, herbicide 50 g/ha): 0 mg FW | Regrowth (mg FW) (mutant rice; low light intensity, no safener, herbicide 60 g/ha): 0 mg FW | Regrowth (mg FW) (mutant rice; low light intensity, no safener, herbicide 70 g/ha): 0 mg FW | Regrowth (mg FW) (mutant rice; low light intensity, with safener (isoxadifen), herbicide 30 g/ha): 117 mg FW | Regrowth (mg FW) (mutant rice; low light intensity, with safener (isoxadifen), herbicide 40 g/ha): 100 mg FW | Regrowth (mg FW) (mutant rice; low light intensity, with safener (isoxadifen), herbicide 50 g/ha): 150 mg FW | Regrowth (mg FW) (mutant rice; low light intensity, with safener (isoxadifen), herbicide 60 g/ha): 50 mg FW | Regrowth (mg FW) (mutant rice; low light intensity, with safener (isoxadifen), herbicide 70 g/ha): 30 mg FW | Efficacy at ED50 of mutant- 5.2 g/ha (%) [4]: 26% | Calculated efficacy base on Colby (%) ([5]; expected for mutant & safener, quizalofop 5.2 g/ha): 63% | additive effect of safener and mutation, increase in ED50 ([5]; expected, compared to wildtype rice without safener): 5.1 fold | observed increase in ED50 ([5]; herbicide resistant rice with safener compared to wildtype rice without safener): 31.4 fold | Observed efficacy (%) ([5]; mutant & safener, quizalofop 5.2 g/ha): 92% | Efficacy at ED50 of mutant- 5.2 g/ha (%) ([5]; mutant alone, quizalofop 5.2 g/ha): 50% | increase in tolerance to herbicide (ED50) by the mutation ([5]; mutant rice vs wildtype rice, no safener): 2.4 fold
